Measured values as given in patent US6127360A, “Diamine derivatives and pharmaceutical containing the same” (Kowa Co., Ltd., priority 1997, dated 2000).
Counter-ions that a name gives are not always drawn.

What was measured:
[1] = molecular target: T1, isolated guinea pig ileum (Cavia porcellus, UniProt Q2NNR5); assay: Anti-LTD4 action on isolated guinea pig ileum (LTD4 contraction); format: cell-based; conditions: 10^-5 M test compound; contraction caused by 10^-8 M LTD4; read-out: Anti-LTD4 action (inhibition rate)
T1 construct: An isolated guinea pig ileum was cut into about 2 cm lengths; from tissue; host or cells: guinea pig ileum
T1 sequence (Q2NNR5 1-340): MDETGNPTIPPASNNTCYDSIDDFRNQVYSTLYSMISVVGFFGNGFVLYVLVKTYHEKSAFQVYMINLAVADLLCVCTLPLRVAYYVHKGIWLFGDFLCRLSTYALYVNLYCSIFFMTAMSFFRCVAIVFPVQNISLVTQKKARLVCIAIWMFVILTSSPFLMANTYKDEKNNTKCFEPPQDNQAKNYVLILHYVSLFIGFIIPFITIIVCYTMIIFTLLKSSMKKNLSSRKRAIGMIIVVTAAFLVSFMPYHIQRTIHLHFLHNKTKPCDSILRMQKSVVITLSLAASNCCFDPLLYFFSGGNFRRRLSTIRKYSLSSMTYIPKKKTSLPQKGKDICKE
Description: Antihistaminic Action and Anti-LTD4 Action (In vitro Tests)
An isolated guinea pig ileum was cut into about 2 cm lengths. Each ileum piece was suspended in a 20-ml container filled with the Tyrode's buffer. An isotonic contractive response by histamine or LTD4 was recorded on a recorder. The Tyrode's buffer was controlled at 30° C., through which a mixed gas (95%O2 -5%CO2) was bubbled.

[2] = molecular target: T2, H1 receptor (Cavia porcellus, UniProt P31389); assay: H1 Receptor Binding Inhibition Test ([3H]mepyramin, guinea pig cerebromembranous protein); conditions: read-out: H1 receptor dissociation constant (KD)
T2 construct: guinea pig cerebromembranous protein and a test compound; from tissue; host or cells: guinea pig brain membranes
Description: H1 Receptor Binding Inhibition Test
An ice-cold phosphate buffer was added to terminate the reaction, followed by immediate filtration through a Wattman CF/C filter. The filter was washed twice with 20 ml aliquots of the ice-cold buffer. The radio-activity of the residue was measured by a liquid scintillation counter. From a measurement value obtained without the addition of the test compound and measurements values obtained upon addition of the test compound at various concentrations, the dose-response of the inhibitory action of the test compound was measured and the 50% inhibitory concentration (IC50) was determined. Using the Cheng-Prusoff formula, a dissociation constant (KD) was calculated from the 50% inhibitory concentration (IC50).
In a binding assay, 10^4 M R(-)dimethindene was used for the measurement of a nonspecific binding.

[3] = molecular target: T3, LTD4 receptor (Cavia porcellus, UniProt Q2NNR5); assay: LTD4 Receptor Binding Inhibition Test ([3H]LTD4, guinea pig pulmomembranous protein); conditions: read-out: LTD4 receptor dissociation constant (KD)
T3 construct: guinea pig pulm-omembranous protein and a test compound; from tissue; host or cells: guinea pig lung membranes
T3 sequence (Q2NNR5 1-340): T1 sequence (Q2NNR5 1-340)
Description: LTD4 Receptor Binding Inhibition Test
An ice-cold tris hydrochloride/sodium chloride buffer (10 mM/100 mM, pH 7.5) was added to terminate the reaction, followed by immediate filtration through a Wattman CF/C filter. The filter was washed twice with 20 ml aliquots of the ice-cold buffer. The radioactivity of the residue was measured by a liquid scintillation counter.
In a binding assay, […] LTD4 was used for the measurement of a nonspecific binding.

T2 sequence (P31389 whole entry): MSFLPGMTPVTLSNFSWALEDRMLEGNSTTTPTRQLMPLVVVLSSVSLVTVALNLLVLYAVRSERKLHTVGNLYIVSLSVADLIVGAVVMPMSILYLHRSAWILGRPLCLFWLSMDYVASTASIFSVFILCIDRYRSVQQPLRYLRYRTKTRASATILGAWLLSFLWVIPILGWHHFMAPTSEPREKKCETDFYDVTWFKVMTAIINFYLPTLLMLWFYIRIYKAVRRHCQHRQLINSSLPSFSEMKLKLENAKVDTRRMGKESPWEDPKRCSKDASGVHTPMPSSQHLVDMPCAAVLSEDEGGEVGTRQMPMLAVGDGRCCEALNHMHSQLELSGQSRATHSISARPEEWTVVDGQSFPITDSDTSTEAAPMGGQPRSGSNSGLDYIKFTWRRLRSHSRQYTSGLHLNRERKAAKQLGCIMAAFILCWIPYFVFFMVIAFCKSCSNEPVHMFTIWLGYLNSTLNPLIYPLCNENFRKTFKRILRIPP

Row | SMILES | inhibition at 10 µM [1] [%] | Ki [2] [nM] | Ki [3] [µM]
1 | Cc1ccc(OCCCCCN2CCN(Cc3ccc4ccccc4n3)CC2)c2c1NC(=O)C2(C)C [Example 9, 3,3,7-Trimethyl-4-{5-[4-(2-quinolylmethyl)-1-piperazinyl]pentyloxy}-2,3-dihydro-1H-indol-2-one] | 40 | 13.5 | 49.6
2 | CC1(C)C(=O)Nc2cc(OCCCN3CCCN(Cc4ccc5ccccc5n4)CC3)ccc21 [Example 78, 3,3-Dimethyl-6-{3-[4-(2-quinolylmethyl)-1-homopiperazinyl]propoxy}-2,3-dihydro-1H-indol-2-one] | 27 | 18.2 | 7.43
3 | Cn1c(CN2CCCN(CCOc3ccc4c(c3)CCC(=O)N4)CC2)nc2ccccc21 [Example 75, 6-{2-[4-(N-Methylbenzoimidazol-2-ylmethyl)-1-homopiperazinyl]ethoxy}-1,2,3,4-tetrahydroquinolin-2-one] | – | 55.8 | 7.34
4 | O=C1CCc2cccc(OCCCCN3CCN(Cc4ccc5ccccc5n4)CC3)c2N1 [Example 44, 8-{4-[4-(2-Quinolylmethyl)-1-piperazinyl]butoxy}-1,2,3,4-tetrahydroquinolin-2-one] | 47 | – | –
5 | Cc1ccc(OCCCN2CCCN(Cc3ccc4ccccc4n3)CC2)c2c1NC(=O)CC2 [Example 60, 8-Methyl-5-{3-[4-(2-quinolylmethyl)-1-homopiperazinyl]propoxy}-1,2,3,4-tetrahydroquinolin-2-one] | – | 5.45 | 8.73
6 | O=C1CSc2cc(OCCCN3CCN(C(=O)c4ccc5ccccc5n4)CC3)ccc2N1 [Example 102, 7-{3-[4-(2-quinolylcarbonyl)piperazinyl]propoxy}-3,4-dihydro-2H-1,4-benzothiazin-3-one maleate] | 10 | – | –
7 | O=c1ccc2ccc(OCCCN3CCN(Cc4ccc5ccccc5n4)CC3)cc2[nH]1 [Example 36, 7-{3-[4-(2-Quinolylmethyl)-1-piperazinyl]propoxy}-1,2-dihydroquinolin-2-one] | 46 | 0.00349 | 1.99
8 | CC1(C)C(=O)Nc2cc(OCCCCCN3CCN(Cc4ccc5ccccc5n4)CC3)ccc21 [Example 42, 3,3-Dimethyl-6-{5-[4-(2-quinolylmethyl)-1-piperazinyl]pentyloxy}-2,3-dihydro-1H-indol-2-one] | 13 | – | –
9 | O=C1CCc2cccc(OCCCN3CCCN(Cc4ccc5ccccc5n4)CC3)c2N1 [Example 88, 8-{3-[4-(2-Quinolylmethyl)-1-homopiperazinyl]propoxy}-1,2,3,4-tetrahydroquinolin-2-one] | 12 | – | –
10 | Cc1ccc(OCCCN2CCN(Cc3nc4ccccc4n3C)CC2)c2c1NC(=O)C2(C)C [Example 26, 3,3,7-Trimethyl-4-{3-[4-(N-methylbenzoimidazol-2-ylmethyl)-1-piperazinyl]propoxy}-2,3-dihydro-1H-indol-2-one] | 27 | 36.3 | 3.34
11 | CC1(C)C(=O)Nc2cccc(OCCCN3CCN(Cc4ccc5ccccc5n4)CC3)c21 [Example 41, 3,3-Dimethyl-4-{3-[4-(2-quinolylmethyl)-1-piperazinyl]propoxy}-2,3-dihydro-1H-indol-2-one] | – | 4.32 | 3.83
12 | O=C1CCc2cccc(OCCCCN3CCCN(Cc4ccc5ccccc5n4)CC3)c2N1 [Example 89, 8-{4-[4-(2-Quinolylmethyl)-1-homopiperazinyl]butoxy}-1,2,3,4-tetrahydroquinolin-2-one] | 21 | – | –
13 | Cn1c(CN2CCCN(CCOc3ccc4[nH]c(=O)ccc4c3)CC2)nc2ccccc21 [Example 77, 6-{2-[4-(N-Methylbenzoimidazol-2-ylmethyl)-1-homopiperazinyl]ethoxy}-1,2-dihydroquinolin-2-one] | – | 74.5 | 110
14 | O=c1ccc2ccc(OCCN3CCN(Cc4ccc5ccccc5n4)CC3)cc2[nH]1 [Example 39, 7-{2-[4-(2-Quinolylmethyl)-1-piperazinyl]ethoxy}-1,2-dihydroquinolin-2-one] | 30 | – | –
15 | CC1(C)C(=O)Nc2ccc(OCCN3CCN(Cc4ccc5ccccc5n4)CC3)cc21 [Example 1, 3,3-dimethyl-5-{2-[4-(2-quinolylmethyl)-1-piperazinyl]ethoxy}-2,3-dihydro-1H-indol-2-one] | 16 | 173 | 3.24
16 | CC1(C)C(=O)Nc2ccc(OCCN3CCCN(Cc4ccc5ccccc5n4)CC3)cc21 [Example 50, 3,3-dimethyl-5-{2-[4-(2-quinolylmethyl)-1-homopiperazinyl]ethoxy}-2,3-dihydro-1H-indol-2-one dimaleate] | – | 457 | 8.6
17 | O=C1CCc2cccc(OCCCN3CCN(Cc4ccc5ccccc5n4)CC3)c2N1 [Example 45, 8-{3-[4-(2-Quinolylmethyl)-1-piperazinyl]propoxy)-1,2,3,4-tetrahydroquinolin-2-one] | – | 3.39 | 1.98
18 | Cc1ccc(OCCN2CCN(Cc3ccc4ccccc4n3)CC2)c2c1NC(=O)C2(C)C [Example 93, 3,3,7-Trimethyl-4-{2-[4-(2-quinolylmethyl)-1-piperazinyl]ethoxy}-2,3-dihydro-1H-indol-2-one] | – | 71 | 5.9
19 | O=C1CCc2ccc(OCCN3CCN(Cc4ccc5ccccc5n4)CC3)cc2N1 [Example 32, 7-{2-[4-(2-Quinolylmethyl)-1-piperazinyl]ethoxy}-1,2,3,4-tetrahydroquinolin-2-one] | 20 | – | –
20 | CC1(C)C(=O)Nc2c(OCCCN3CCCN(Cc4ccc5ccccc5n4)CC3)cccc21 [Example 69, 3,3-Dimethyl-7-{3-[4-(2-quinolylmethyl)-1-homopiperazinyl]propoxy}-2,3-dihydro-1H-indol-2-one] | 25 | – | –
21 | CCOCCn1c(CN2CCCN(CCCOc3ccc4c(c3)SCC(=O)N4)CC2)nc2ccccc21 [Example 83, 7-{3-[4-(N-Ethoxyethylbenzoimidazol-2-ylmethyl)-1-homopiperazinyl]-propoxy}-3,4-dihydro-2H-1,4-benzothiazin-3-one] | 26 | – | –
22 | O=C1CCc2ccc(OCCN3CCCN(Cc4ccc5ccccc5n4)CC3)cc2N1 [Example 81, 7-{2-[4-(2-Quinolylmethyl)-1-homopiperazinyl]ethoxy}-1,2,3,4-tetrahydroquinolin-2-one] | 19 | – | –
23 | Cn1c(CN2CCCN(CCOc3ccc4ccc(=O)[nH]c4c3)CC2)nc2ccccc21 [Example 80, 7-{2-[4-(N-Methylbenzoimidazol-2-ylmethyl)-1-homopiperazinyl]ethoxy)-1,2-dihydroquinolin-2-one] | 11 | 4.31 | 18.4
24 | CC1(C)C(=O)Nc2c(OCCCN3CCN(Cc4ccc5ccccc5n4)CC3)cccc21 [Example 29, 3,3-Dimethyl-7-{3-[4-(2-quinolylmethyl)-1-piperazinyl]propoxy}-2,3-dihydro-1H-indol-2-one] | 48 | – | –
25 | Cc1ccc(OCCCN2CCCN(Cc3ccc4ccccc4n3)CC2)c2c1NC(=O)C2(C)C [Example 97, 3,3,7-Trimethyl-4-{3-[4-(2-quinolylmethyl)-1-homopiperazinyl]propoxy}-2,3-dihydro-1H-indol-2-one] | – | 187 | 15.9
26 | Cc1ccc(OCCN2CCCN(Cc3ccc4ccccc4n3)CC2)c2c1NC(=O)C2(C)C [Example 54, 3,3,7-Trimethyl-4-{2-[4-(2-quinolylmethyl)-1-homopiperazinyl]ethoxy}-2,3-dihydro-1H-indol-2-one] | – | 0.249 | 881
